# Source: the supplement of paper PMC10307832
# Legend:
# Experiment in all cases: relative viability (nuclei count vs DMSO), 5 days (fraction); higher = more cells survive
# [1] = system: 201T
# How it was run: (§1)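 Lung cancer cell lines in 1536-well plates got either a single drug or a fixed anchor-drug dose together with five library-drug doses (not always all listed) in √10 steps, by pin tool, on the day after seeding. Nuclei were counted after 5 days, and relative viability is the treated-to-vehicle ratio of nuclei counts. Values are medians of duplicate plates.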
# [2] = system: A-427
# How it was run: as §1
# [3] = system: COR-L23
# How it was run: as §1
# [4] = system: HARA
# How it was run: as §1
# [5] = system: HCC-78
# How it was run: as §1
# [6] = system: LCLC-103H
# How it was run: as §1
# [7] = system: LCLC-97TM1
# How it was run: as §1
# [8] = system: LK-2
# How it was run: as §1
# [9] = system: LOU-NH91
# How it was run: as §1
# [10] = system: LXF-289
# How it was run: as §1
# [11] = system: NCI-H1650
# How it was run: as §1
# [12] = system: NCI-H1651
# How it was run: as §1
# [13] = system: NCI-H1793
# How it was run: as §1
# [14] = system: NCI-H2347
# How it was run: as §1
# [15] = system: NCI-H23
# How it was run: as §1
# [16] = system: NCI-H2405
# How it was run: as §1
# [17] = system: NCI-H520
# How it was run: as §1
# [18] = system: NCI-H522
# How it was run: as §1
# [19] = system: NCI-H647
# How it was run: as §1
# [20] = system: NCI-H838
# How it was run: as §1
# [21] = system: PC-3 [JPC-3]
# How it was run: as §1
# [22] = system: RERF-LC-KJ
# How it was run: as §1
# [23] = system: UMC-11
# How it was run: as §1
smiles,measurement,setting,value
CN1CCN(CCOc2cc(OC3CCOCC3)c3c(Nc4c(Cl)ccc5c4OCO5)ncnc3c2)CC1 [Saracatinib] + N=C(N)NC(=N)NCCc1ccccc1 [Phenformin] (partner 250 µM),relative viability,[1]; first compound 0.02 µM,0.391
same,relative viability,[1]; first compound 0.2 µM,0.415
same,relative viability,[1]; first compound 0.6325 µM,0.422
same,relative viability,[1]; first compound 2 µM,0.369
same,relative viability,[2]; first compound 0.02 µM,0.352
same,relative viability,[2]; first compound 0.2 µM,0.273
same,relative viability,[2]; first compound 0.6325 µM,0.281
same,relative viability,[2]; first compound 2 µM,0.285
same,relative viability,[3]; first compound 0.02 µM,0.466
same,relative viability,[3]; first compound 0.2 µM,0.393
same,relative viability,[3]; first compound 0.6325 µM,0.481
same,relative viability,[3]; first compound 2 µM,0.449
same,relative viability,[4]; first compound 0.02 µM,0.54
same,relative viability,[4]; first compound 0.2 µM,0.279
same,relative viability,[4]; first compound 0.6325 µM,0.496
same,relative viability,[4]; first compound 2 µM,0.24
same,relative viability,[5]; first compound 0.02 µM,0.704
same,relative viability,[5]; first compound 0.6325 µM,0.772
same,relative viability,[5]; first compound 2 µM,0.554
same,relative viability,[6]; first compound 0.02 µM,0.337
same,relative viability,[6]; first compound 0.2 µM,0.354
same,relative viability,[6]; first compound 0.6325 µM,0.37
same,relative viability,[6]; first compound 2 µM,0.314
same,relative viability,[7]; first compound 0.02 µM,0.461
same,relative viability,[7]; first compound 0.2 µM,0.399
same,relative viability,[7]; first compound 0.6325 µM,0.469
same,relative viability,[7]; first compound 2 µM,0.413
same,relative viability,[8]; first compound 0.02 µM,0.545
same,relative viability,[8]; first compound 0.2 µM,0.368
same,relative viability,[8]; first compound 0.6325 µM,0.313
same,relative viability,[8]; first compound 2 µM,0.314
same,relative viability,[9]; first compound 0.02 µM,0.648
same,relative viability,[9]; first compound 0.2 µM,0.47
same,relative viability,[9]; first compound 0.6325 µM,0.553
same,relative viability,[9]; first compound 2 µM,0.403
same,relative viability,[10]; first compound 0.02 µM,0.546
same,relative viability,[10]; first compound 0.2 µM,0.486
same,relative viability,[10]; first compound 0.6325 µM,0.506
same,relative viability,[10]; first compound 2 µM,0.458
same,relative viability,[11]; first compound 0.02 µM,0.412
same,relative viability,[11]; first compound 0.2 µM,0.253
same,relative viability,[11]; first compound 0.6325 µM,0.317
same,relative viability,[11]; first compound 2 µM,0.295
same,relative viability,[12]; first compound 0.02 µM,0.414
same,relative viability,[12]; first compound 0.2 µM,0.258
same,relative viability,[12]; first compound 0.6325 µM,0.388
same,relative viability,[12]; first compound 2 µM,0.3
same,relative viability,[13]; first compound 0.02 µM,0.439
same,relative viability,[13]; first compound 0.6325 µM,0.308
same,relative viability,[13]; first compound 2 µM,0.263
same,relative viability,[14]; first compound 0.02 µM,0.38
same,relative viability,[14]; first compound 0.2 µM,0.26
same,relative viability,[14]; first compound 0.6325 µM,0.377
same,relative viability,[14]; first compound 2 µM,0.342
same,relative viability,[15]; first compound 0.02 µM,0.807
same,relative viability,[15]; first compound 0.2 µM,0.631
same,relative viability,[15]; first compound 0.6325 µM,0.917
same,relative viability,[15]; first compound 2 µM,0.739
same,relative viability,[16]; first compound 0.02 µM,0.406
same,relative viability,[16]; first compound 0.2 µM,0.328
same,relative viability,[16]; first compound 0.6325 µM,0.304
same,relative viability,[16]; first compound 2 µM,0.185
same,relative viability,[17]; first compound 0.02 µM,0.687
same,relative viability,[17]; first compound 0.6325 µM,0.441
same,relative viability,[17]; first compound 2 µM,0.291
same,relative viability,[18]; first compound 0.02 µM,0.553
same,relative viability,[18]; first compound 0.6325 µM,0.639
same,relative viability,[18]; first compound 2 µM,0.612
same,relative viability,[19]; first compound 0.02 µM,0.584
same,relative viability,[19]; first compound 0.2 µM,0.362
same,relative viability,[19]; first compound 0.6325 µM,0.5
same,relative viability,[19]; first compound 2 µM,0.308
same,relative viability,[20]; first compound 0.02 µM,0.645
same,relative viability,[20]; first compound 0.2 µM,0.486
same,relative viability,[20]; first compound 0.6325 µM,0.49
same,relative viability,[20]; first compound 2 µM,0.379
same,relative viability,[21]; first compound 0.02 µM,0.49
same,relative viability,[21]; first compound 0.2 µM,0.421
same,relative viability,[21]; first compound 0.6325 µM,0.421
same,relative viability,[21]; first compound 2 µM,0.339
same,relative viability,[22]; first compound 0.02 µM,0.445
same,relative viability,[22]; first compound 0.2 µM,0.401
same,relative viability,[22]; first compound 0.6325 µM,0.313
same,relative viability,[22]; first compound 2 µM,0.361
same,relative viability,[23]; first compound 0.02 µM,0.341
same,relative viability,[23]; first compound 0.6325 µM,0.32
same,relative viability,[23]; first compound 2 µM,0.232
